In patent US20060014940A1, “Cloning and characterization of slc26a6, slc26a1, and slc26a2 anion exchangers” (priority 2002, published 2006):
Values belong to the molecule of their own block, whether it stands above or below them.

Experiments:
mouse SLC26A6b [1] = target: T1, mouse SLC26A6b (Mus musculus, UniProt Q8CIW6, R572P); experiment: Radiolabelled anion uptake/exchange in Xenopus oocytes expressing mouse SLC26A6b; assay type: cell-based; details: for cis-inhibition of SO4 2− transport / cis-inhibition of Cl−—Cl− exchange: 25 mM of the anion; for cis-inhibition of SO4 2− transport: 35SO4 uptake one hour (FIG. 7B); for cis-inhibition of Cl−—Cl− exchange: 36Cl− uptake one hour (FIG. 7A); for exchange of SO4 2− with extracellular anion (trans-stimulation of 35SO4 efflux): 10 mM of the anion, 30 minutes (FIG. 7C); for 36Cl− uptake: 8.3 mM 36Cl
T1 construct: Full-length mouse SLC26A6b and SLC26A 1 cDNAs were cloned into the Xenopus expression vector pGEMHE; expressed in transfected cells; host or cells: Xenopus laevis oocytes injected with in vitro transcribed cRNA (pGEMHE)
T1 sequence (Q8CIW6 24-758 R572P limits assumed): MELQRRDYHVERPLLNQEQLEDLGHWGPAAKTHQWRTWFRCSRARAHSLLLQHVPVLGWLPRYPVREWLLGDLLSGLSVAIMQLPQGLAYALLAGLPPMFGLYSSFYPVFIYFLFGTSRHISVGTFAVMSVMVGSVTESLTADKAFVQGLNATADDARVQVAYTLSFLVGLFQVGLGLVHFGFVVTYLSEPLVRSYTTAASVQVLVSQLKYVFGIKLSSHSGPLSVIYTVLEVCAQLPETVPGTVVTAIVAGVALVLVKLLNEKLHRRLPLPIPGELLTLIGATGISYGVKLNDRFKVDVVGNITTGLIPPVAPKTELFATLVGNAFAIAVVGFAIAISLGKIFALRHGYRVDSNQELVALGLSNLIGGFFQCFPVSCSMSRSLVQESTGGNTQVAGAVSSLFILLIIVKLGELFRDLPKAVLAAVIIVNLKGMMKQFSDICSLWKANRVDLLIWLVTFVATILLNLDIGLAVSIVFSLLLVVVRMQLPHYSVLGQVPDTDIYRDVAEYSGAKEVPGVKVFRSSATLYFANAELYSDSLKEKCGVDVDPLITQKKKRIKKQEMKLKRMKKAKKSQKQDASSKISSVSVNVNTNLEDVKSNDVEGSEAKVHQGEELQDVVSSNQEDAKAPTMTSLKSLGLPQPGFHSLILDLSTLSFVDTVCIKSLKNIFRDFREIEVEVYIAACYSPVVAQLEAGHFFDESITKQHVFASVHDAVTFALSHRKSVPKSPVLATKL
Experimental: (§1) Full-length mouse SLC26A6b and SLC26A 1 cDNAs were cloned into the Xenopus expression vector pGEMHE (Liman et al., 1992). The SLC26A6 and SLC26A1 expression constructs were linearized, and cRNA was transcribed in vitro using T7 RNA polymerase and a […] MMACHINE® transcription kit (Ambion, Inc. of Austin, Tex., United States of America). Defolliculated oocytes were injected with 25 nl to 50 nl of water or with a solution containing cRNA at a concentration of 0.5 μg/μl (12.5 ng to 25 ng per oocyte) using a Nanoliter-2000 injector (WPI Instruments of Sarasota, Fla., United States of America). Oocytes were incubated at 17° C. in 50% Leibovitz's L-15 media supplemented with penicillin/streptomycin (1000 units/ml) and glutamine for 2-3 days for uptake assays.
(§2) For sulphate uptake assays, oocytes were pre-incubated for 20 minutes in chloride-free uptake medium (100 mM NMDG gluconate, 2 mM potassium gluconate, 1 mM calcium gluconate, 1 mM magnesium gluconate, 10 mM HEPES-Tris, pH 6.0 or pH 7.5 as indicated), followed by a 60-minute period for uptake in the same medium supplemented with 1 mM K2^35SO4 (40 μCi/ml). The cells were then washed three times in uptake buffer with 5 mM cold K2SO4 to remove tracer activity in the extracellular fluid. The oocytes were dissolved individually in 10% SDS, and tracer activity was determined by scintillation counting. Uptake of chloride, formate, and oxalate was assayed using the same chloride-free uptake solutions, substituting 8.3 mM ^36Cl, 500 μM [^14C]oxalate, or 50 μM [^14C]formate for labeled sulphate.
(§3) For sulphate exchange and cis-inhibition experiments, the concentration of NMDG-gluconate in the uptake solution was adjusted to maintain isotonic osmolality, which was confirmed experimentally using a FISKE® osmometer (Fiske Associates, Inc. of Bethel, Conn., United States of America).

mouse SLC26A1 = target: T2, mouse SLC26A1 (Mus musculus, UniProt P58735, C691Y); experiment: Radiolabelled anion uptake in Xenopus oocytes expressing mouse SLC26A1; assay type: cell-based; details: for effect of extracellular anion on SO4 2− transport via SLC26A1: 25 mM of the anion (FIG. 9A, 6C); for transport via SLC26A1: FIG. 6B, FIG. 8B
T2 construct: Full-length mouse SLC26A6b and SLC26A 1 cDNAs were cloned into the Xenopus expression vector pGEMHE; expressed in transfected cells; host or cells: Xenopus laevis oocytes injected with in vitro transcribed cRNA (pGEMHE)
T2 sequence (P58735 1-704 C691Y): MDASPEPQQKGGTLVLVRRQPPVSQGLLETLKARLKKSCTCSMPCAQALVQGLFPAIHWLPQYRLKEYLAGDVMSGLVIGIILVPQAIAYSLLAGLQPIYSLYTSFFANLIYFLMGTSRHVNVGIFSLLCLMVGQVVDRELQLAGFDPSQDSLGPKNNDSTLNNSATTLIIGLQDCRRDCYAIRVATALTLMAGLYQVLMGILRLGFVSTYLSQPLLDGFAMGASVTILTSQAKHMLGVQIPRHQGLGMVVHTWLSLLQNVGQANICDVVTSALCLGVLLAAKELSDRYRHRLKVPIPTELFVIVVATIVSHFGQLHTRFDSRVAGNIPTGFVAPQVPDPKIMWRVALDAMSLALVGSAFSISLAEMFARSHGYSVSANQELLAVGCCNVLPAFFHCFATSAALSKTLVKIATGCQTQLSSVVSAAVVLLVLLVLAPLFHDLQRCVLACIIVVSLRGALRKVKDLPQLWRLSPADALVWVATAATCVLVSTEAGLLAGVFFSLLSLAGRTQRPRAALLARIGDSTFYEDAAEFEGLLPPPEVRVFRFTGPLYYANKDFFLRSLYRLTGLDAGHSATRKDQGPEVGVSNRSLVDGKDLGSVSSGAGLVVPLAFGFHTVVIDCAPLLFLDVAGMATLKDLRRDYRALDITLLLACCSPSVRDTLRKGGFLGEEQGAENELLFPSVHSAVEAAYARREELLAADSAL
Experimental: as §1, §2, §3

mouse SLC26A2 = mouse SLC26A2 (Mus musculus, UniProt Q62273)
Experimental: as §2

human SLC26A6 = test system: human SLC26A6
Description: FIG. 13 depicts chloride uptake in Xenopus oocytes expressing Xenopus xPDS2, human SLC26A3 (DRA), mouse Slc26a6, and human SLC26A6, with extracellular pH of 7.5 (open bars) or 6.0 (dark fill).
FIG. 15 depicts sulphate transport mediated by Xenopus oocytes expressing human SLC26A6, at varying concentrations of extracellular SO4^2− and constant amounts of tracer ^35SO4^2−.
A feature of the mammalian SLC26 gene family is relatively low conservation between orthologs in mouse and man; the percent amino acid identity ranges from a low of 76% (SLC26A8) to a high of 90% (SLC26A9), versus the reported median of 86% for mouse and human orthologous genes. Makalowski, W. & Boguski, 1998. This sequence divergence is reflected in functional variation, which can be exploited for structure-function analysis.

xSLC26A6 = details: FIG. 17
Description: (§4) One or more of these xPDS genes likely corresponds to the Xenopus descendant of mammalian SLC26A3.

xPDS1 = experiment: Anion transport in Xenopus oocytes expressing xPDS1; assay type: cell-based, Xenopus laevis
Description: as §4

xPDS2 = experiment: Anion transport in Xenopus oocytes expressing xPDS2; assay type: cell-based, Xenopus laevis
Description: as §4

xPDS3 = experiment: Anion transport in Xenopus oocytes expressing xPDS3; assay type: cell-based, Xenopus laevis
Description: as §4

SLC26A1 = SLC26A1 (Rattus norvegicus, UniProt P45380); details: Markovich & James, 1999; cited from earlier work
mouse SLC26A6b [2] = target: T1, mouse SLC26A6b; experiment: Radiolabelled anion uptake/exchange in Xenopus oocytes expressing mouse SLC26A6b; assay type: cell-based; details: pH 7.4; DIDS 1 mM (FIG. 6A)
rat SLC26A1 = rat SLC26A1 (Rattus norvegicus, UniProt P45380); details: Satoh et al., 1998; cited from earlier work
Sequence of rat SLC26A1 (P45380 whole entry): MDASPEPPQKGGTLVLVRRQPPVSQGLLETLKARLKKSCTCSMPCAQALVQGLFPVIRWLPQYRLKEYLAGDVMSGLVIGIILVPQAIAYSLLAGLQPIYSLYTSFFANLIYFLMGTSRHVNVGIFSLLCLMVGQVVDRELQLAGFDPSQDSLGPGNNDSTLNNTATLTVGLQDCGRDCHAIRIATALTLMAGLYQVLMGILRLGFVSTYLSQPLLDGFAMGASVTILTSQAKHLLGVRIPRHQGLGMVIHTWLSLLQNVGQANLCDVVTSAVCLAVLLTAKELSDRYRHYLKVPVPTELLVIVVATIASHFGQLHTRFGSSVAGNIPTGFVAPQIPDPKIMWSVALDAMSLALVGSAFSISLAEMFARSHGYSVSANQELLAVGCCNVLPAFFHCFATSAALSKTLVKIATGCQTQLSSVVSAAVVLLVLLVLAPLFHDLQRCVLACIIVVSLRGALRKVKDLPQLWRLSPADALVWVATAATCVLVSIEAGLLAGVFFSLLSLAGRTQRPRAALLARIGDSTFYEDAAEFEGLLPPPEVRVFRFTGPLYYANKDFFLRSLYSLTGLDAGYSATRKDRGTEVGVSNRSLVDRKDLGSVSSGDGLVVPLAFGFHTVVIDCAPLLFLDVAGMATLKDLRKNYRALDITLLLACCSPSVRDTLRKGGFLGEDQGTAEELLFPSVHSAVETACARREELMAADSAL

Sequence of mouse SLC26A2 (Q62273 whole entry): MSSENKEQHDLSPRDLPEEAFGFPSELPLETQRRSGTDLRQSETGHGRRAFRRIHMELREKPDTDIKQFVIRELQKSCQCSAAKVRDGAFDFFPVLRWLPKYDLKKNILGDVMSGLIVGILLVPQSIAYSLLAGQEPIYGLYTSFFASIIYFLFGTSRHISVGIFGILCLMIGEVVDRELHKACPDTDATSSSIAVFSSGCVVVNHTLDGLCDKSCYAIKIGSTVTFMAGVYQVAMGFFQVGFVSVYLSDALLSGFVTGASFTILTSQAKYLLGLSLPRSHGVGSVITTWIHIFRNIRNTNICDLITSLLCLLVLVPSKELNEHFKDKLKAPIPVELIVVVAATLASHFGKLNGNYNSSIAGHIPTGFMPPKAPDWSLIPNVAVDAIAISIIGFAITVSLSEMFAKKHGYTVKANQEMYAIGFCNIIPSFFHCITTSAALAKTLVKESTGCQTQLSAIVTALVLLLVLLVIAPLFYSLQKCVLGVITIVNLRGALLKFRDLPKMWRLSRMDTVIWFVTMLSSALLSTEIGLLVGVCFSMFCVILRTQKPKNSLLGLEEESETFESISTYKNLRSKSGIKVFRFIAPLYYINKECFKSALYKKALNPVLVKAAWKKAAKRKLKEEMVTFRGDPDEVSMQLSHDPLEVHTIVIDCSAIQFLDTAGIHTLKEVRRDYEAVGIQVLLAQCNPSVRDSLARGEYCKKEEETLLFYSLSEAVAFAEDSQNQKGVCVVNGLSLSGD
Sequence of SLC26A1 (P45380 whole entry): as the sequence (P45380 whole entry) above

cis-inhibition of SO4 2− transport (mouse SLC26A6b [1]): cis-inhibitory | cis-inhibition of Cl−—Cl− exchange (mouse SLC26A6b [1]): cis-inhibitory
Molecule: Br [Br^−]

cis-inhibition of SO4 2− transport (mouse SLC26A6b [1]): cis-inhibitory | cis-inhibition of Cl−—Cl− exchange (mouse SLC26A6b [1]): cis-inhibitory
Molecule: I [I^−, iodide]

Molecule: Cl [Cl^−, chloride]
exchange of SO4 2− with extracellular anion (trans-stimulation of 35SO4 efflux) (mouse SLC26A6b [1]): clearly mediated exchange | 36Cl− uptake (mouse SLC26A6b [1]; pH 6.0): 4193±109 pmol/oocyte/hour | 36Cl− uptake (mouse SLC26A6b [1]; pH 7.4): 4345±243 pmol/oocyte/hour | effect of extracellular anion on SO4 2− transport via SLC26A1 (mouse SLC26A1): much higher | transport via SLC26A1 (mouse SLC26A1): not transported | Cl−—Cl− exchange (mouse SLC26A1; presence or absence of 25 mM SO4 2−): minimal | effect of extracellular Cl− on 35SO4 2− uptake (mouse SLC26A2; 25 mM Cl− (FIG. 10B)): significantly inhibited | Cl− transport (human SLC26A6; FIG. 13): clearly transports | Cl− transport (xSLC26A6): robust | Cl− transport (xPDS1; FIG. 17): robust | Cl− transport (xPDS2; FIG. 17): robust | Cl− transport (xPDS3; FIG. 17): robust

Molecule: mercury
effect on maximal sulphate transport via SLC26A1 (SLC26A1): strongly inhibited

Molecule: O=S(=O)(O)O [sulphate]
exchange of SO4 2− with extracellular anion (trans-stimulation of 35SO4 efflux) (mouse SLC26A6b [1]): clearly mediated exchange | cis-inhibition of Cl−—Cl− exchange (mouse SLC26A6b [1]): significantly inhibited | sulphate uptake at pH 7.4 versus pH 6.0 (mouse SLC26A6b [1]; SLC26A6b-injected oocytes): not significantly altered | sulphate uptake independent of Na+ (mouse SLC26A6b [1]; SLC26A6b-injected oocytes, Na+-free): 652±57 pmol/oocyte/hour | sulphate uptake independent of Cl− (mouse SLC26A6b [1]; SLC26A6b-injected oocytes, pH 7.4, Cl−-free medium, 1 mM 35SO4): 602±0 pmol/oocyte/hour | absolute rate of SO4 2− transport (mouse SLC26A6b [1]; mouse Slc26a6, increasing extracellular SO4 2− (FIG. 14)): ~4,000 pmol/oocyte/hr | effect of extracellular anion on SO4 2− transport via SLC26A1 (mouse SLC26A1): strongly cis-inhibitory | SO4 2− uptake (mouse SLC26A1; SLC26A1-injected oocytes (FIG. 6A)): 72±2 pmol/oocyte/h | 35SO4 2− uptake (mouse SLC26A2; absence of extracellular Cl− (FIG. 10A)): robust | 35SO4 2− uptake at pH 6.0 (mouse SLC26A2; pH 6.0 versus pH 7.4 (FIG. 10A)): increased significantly | absolute rate of SO4 2− transport (human SLC26A6; human SLC26A6, increasing extracellular SO4 2− (FIG. 15)): ~200 pmol/oocyte/hr | SO4 2− transport (xPDS1): none of the xPDS clones transport | SO4 2− transport (xPDS2): none of the xPDS clones transport | SO4 2− transport (xPDS3): none of the xPDS clones transport

sulphate uptake, sensitivity to DIDS (mouse SLC26A6b [1]; pH 6.0, DIDS 1 mM (FIG. 6A)): 101±10 pmol/oocyte/hour | sulphate uptake, sensitivity to DIDS (mouse SLC26A6b [2]): 301±24 pmol/oocyte/hour
Molecule: O=S(=O)(O)c1cc(N=C=S)ccc1C=Cc1ccc(N=C=S)cc1S(=O)(=O)O [DIDS, 4,4′-diisothiocyanatostilbene-2,2′-disulfonic acid]

Molecule: O=CO [formate]
formate uptake (mouse SLC26A6b [1]; 50 μM [14C]formate (FIG. 8B)): 45±5 pmol/oocyte/hour | exchange of SO4 2− with extracellular anion (trans-stimulation of 35SO4 efflux) (mouse SLC26A6b [1]): clearly mediated exchange | cis-inhibition of Cl−—Cl− exchange (mouse SLC26A6b [1]): significantly inhibited | effect of extracellular anion on SO4 2− transport via SLC26A1 (mouse SLC26A1): activate | transport via SLC26A1 (mouse SLC26A1): not transported | formate uptake (mouse SLC26A1; SLC26A1-injected oocytes): 7 pmol/oocyte/h

cis-inhibition of Cl−—Cl− exchange (mouse SLC26A6b [1]): not lactate significantly inhibited | effect of extracellular anion on SO4 2− transport via SLC26A1 (mouse SLC26A1): activate
Molecule: CC(O)C(=O)O (stereo not drawn) [lactate]

Molecule: O=C(O)O [HCO3^−, bicarbonate]
activation of SO4 2− uptake (rat SLC26A1): does not activate
